Results on 1 molecule are retold here after patent US5573908A, “Adrenergic receptor as a proto-oncogene” (Duke University, priority 1993, dated 1996).

For test [1], the system named is RAT-1 fibroblasts transfected with ras c-DNA. Briefly: Focus formation in RAT-1 fibroblasts transfected with activated Ha-ras c-DNA. The test is classed as cell-based. As to the method:
(§1) Transfection was carried out as follows: RAT-1 fibroblasts were seeded at a density of 2×10^5 cells in Dulbecco's modified Eagle's medium (DMEM) (Gibco) containing 5% fetal bovine serum (FBS) in 100 mm dishes. Cells were grown overnight, then transfected with 10 μg of DNA (expression vector alone [pZIP-NeoSV(X)1] or containing the α1B-ADR, α1B -ADR mutant [discussed in Example 3 below] or activated Ha-ras c-DNAs) by calcium phosphate precipitation (B. Cullen, Methods Enzymol. 152, 684 (1987)). The α1B -ADR used herein was the hamster α1B -ADR described in S. Cotecchia et al., Proc. Natl. Acad. Sci. USA 85, 7159-7163 (1988). After 16 hours, the DNA precipitate was removed, the cells washed and grown for 24 hours in complete medium. Cells were split 1:5, allowed to attach overnight and then cultured in DMEM with 5% FBS alone, supplemented with 10 μM norepinephrine (NE) or G418 (300 μg/ml). Dishes were supplemented with NE daily, and fed every 3 days with fresh medium.
^1 Cells were cultured for 3 weeks in the presence or absence of 10
μM norepinephrine (NE), supplemented daily, in medium containing 5%
FBS. The number of transformed foci were scored after 4 weeks of culture.
Results represent the average duplicate determinations from two
independent experiments which agreed within 25%; nd = not determined. […]
growth, the number of foci was scored. […]

Test [2] relates to NIH 3T3 fibroblasts transfected with ras c-DNA. Briefly: Focus formation in NIH 3T3 fibroblasts transfected with ras c-DNA. The conditions noted are these: NIH 3T3 transfected with ras; 10 μM NE supplemented daily, 5% FBS (Table 1). Format: cell-based. As to the method: as §1, with “Dishes were supplemented with NE daily, and fed every 3 days with fresh medium.” left out
After transfection of plasmid DNA into RAT-1 fibroblasts, no change in phenotype or focal cell overgrowth was observed after 4 weeks in culture in the absence of added agonist (FIG. 1A). […] Agonist-induced foci represented approximately 15-25% of transfected clones with the number of G418 resistant colonies (40-60/dish) assessed in duplicate transfections. […]
FBS. The number of transformed foci were scored after 4 weeks of culture. […]
independent experiments which agreed within 25%; nd = not determined.

In test [3] the test system is RAT-1 fibroblast cell lines expressing the α1B -ADR. Nature of the test: cells. The conditions noted are these: 600 h, read-out: final cell density (day 25) relative to control.
Protocol: Growth curves of G418 selected RAT-1 fibroblast cell lines transfected with vector alone (A), or expressing the α1B -ADR (B) or α1B -ADR mutant (C) in the absence (------) or presence (---) of norepinephrine (NE). Cells were plated in 100mm dishes at a density of 5×10^5 cells per dish in DMEM containing 5% FBS. After 24 hours, half the dishes received daily supplementation with 10 μM NE, and all dishes were fed with fresh medium every 2-3 days. At each time point, cells were trypsinized and cell counts determined using an electronic particle counter (Coulter Electronics). Values represent the mean of duplicate determinations of a representative experiment, which agree within 6%.
To quantitate receptor-mediated effects on mitogenesis, basal and NE-stimulated growth rates were assessed on cell lines expressing the wild type or mutant α1B -ADRs.
Test [4] has as its target T1, α1B ADR (Mesocricetus auratus, UniProt P18841).
T1 construct: expressed in transfected cells; host or cells: RAT-1 fibroblasts (vector pZIP-NeoSV(X)1), focus-derived, G418-selected lines
T1 sequence (P18841 1-515): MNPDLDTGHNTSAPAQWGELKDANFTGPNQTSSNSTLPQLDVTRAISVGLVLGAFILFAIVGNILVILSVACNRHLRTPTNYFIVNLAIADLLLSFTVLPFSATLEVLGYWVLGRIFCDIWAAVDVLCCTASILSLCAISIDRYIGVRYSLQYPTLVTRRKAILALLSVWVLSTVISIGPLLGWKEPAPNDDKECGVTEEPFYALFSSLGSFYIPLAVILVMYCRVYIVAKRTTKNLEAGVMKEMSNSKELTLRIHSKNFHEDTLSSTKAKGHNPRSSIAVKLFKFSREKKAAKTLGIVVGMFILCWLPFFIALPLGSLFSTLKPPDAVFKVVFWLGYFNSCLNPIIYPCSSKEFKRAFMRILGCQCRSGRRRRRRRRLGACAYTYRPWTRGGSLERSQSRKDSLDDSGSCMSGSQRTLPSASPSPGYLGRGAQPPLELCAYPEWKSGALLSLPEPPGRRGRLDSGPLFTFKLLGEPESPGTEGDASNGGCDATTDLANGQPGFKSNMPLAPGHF
Briefly: Ligand binding on membranes of RAT-1 fibroblast cell lines expressing the α1B ADR. More on the design: species or system hamster. The conditions noted are these: competition with 100 pM [125I] HEAT; membranes, two clones; read-out: NE Ki. As to the method: In Table 3, RAT-1 fibroblast cell lines transfected with expression vector alone or derived from transformed foci (α1B ADR or α1B ADR mutant) were selected with G418 (300 μg/ml). Ligand binding was performed on membranes prepared from two clones of each in accordance with known techniques (S. Cotecchia et al., Life Sci. 37, 2389 (1986)). For saturation binding analysis, [^125 ] HEAT concentrations ranged from 10 to 500 pM, nonspecific binding was determined using 1 μM prazosin; in competition experiments, the radioligand concentration was 100 pM. Ligand binding parameters were determined using computerized iterative nonlinear regression analysis (P. Munson, Methods in Enzymol. 92, 5432 (1983)). For assessment of receptor coupling to PI hydrolysis, cells were plated in 30 mm dishes, and labeled overnight with 3 μCi/ml of myo-[2-^3 II(N)]-inositol (1Ci=37 GBq; NEN Research Products) in DMEM containing 3.3% FBS in accordance with known techniques (S. Cotecchia et al., Proc. Natl. Acad. Sci. USA 87, 2896 (1990)). After 40 minute stimulation of cells with 10 μM norepinephrine (NE), inositol phosphates were extracted, and separated on AG 1-X8 anion exchange columns (BioRad Labs) in accordance with known techniques (S. Cotecchia et al., Proc. Natl. Acad. Sci. USA 87, 2896 (1990)). Total inositol phosphates were eluted with 1M ammonium formate/0.1M formic acid. Rmax indicates the percentage increase of total labeled inositol phosphates over basal levels following NE stimulation.

The structures appear in SMILES notation. Values joined by “and” are separate entries in the source; they are usually repeats but may differ in a detail not shown here. Equal entries are not always repeated. A value given as a limit tells only on which side of the number the result lay.

For `NC[C@H](O)c1ccc(O)c(O)c1` [NE, norepinephrine], the “Foci No. +NE” value was 197 in test [1] (RAT-1 transfected with ras, 10 μM NE supplemented daily, 5% FBS (Table 1)); > 500 and 460 in test [1] (focus derived RAT-1 cell lines, ras, 10 μM NE, 3 weeks of growth, two clones (Table 2)); 180 in test [2]. Besides, the fold induction at 10 µM in test [3] was found to be 1.9. Besides, the Ki (in general, a measure of affinity in units of concentration, obtained from inhibition or displacement) in test [4] was 5.82 µM and 5.33 µM.
